What was measured:
[1] = tested on: excised rat femoral artery contracted with KCl; experiment: Vasodilation of excised rat femoral artery in Magnus tube; conditions: 0.1 μmol/L to 30 μmol/L, in vitro, n=3 (FIG. 9)
Protocol: The femoral artery vessel (3 mm in width) excised from the rat was placed to a Magnus tube filled with a Krebs-Henseleit solution maintained at 37° C., to which a mixed gas of 95% O2 and 5% CO2 was continuously injected by reference to the method by Abiru et al. (Abiru T, et al., Eur J. Pharmacol. 1995; 281:9-15.). The isometric tension of the vessel was measured with a tension transducer, and the result was recorded with a thermal printer. The vessel was adjusted to a resting tension of 0.75 g. The vessel was contracted by 60 mmol/L (rats) of potassium chloride, and then the Compound 1 or a base was continuously injected to the Magnus tube. At the end of each experiment, […] of papaverine was added in order to determine the maximum relaxation.

[2] = Pharmacokinetics study in the rat, single oral dose; format: in vivo; conditions: non-fasting, serum, n=3
Protocol: The concentration of the Compound 1 in the serum was detected with a high-performance liquid chromatography system attached with a fluorescence detector. The maximum plasma concentration (Cmax) and time to the maximum plasma concentration (Tmax) were determined from the measurement of the drug concentration in the serum, half-life (T1/2), and AUC. The time curve was computed by a least squares method and a trapezoidal method, respectively.

[3] = tested on: normal human umbilical vein endothelial cells (HUVEC); experiment: HUVEC tube formation on Matrigel matrix; format: cell-based
Protocol: (§1) The Compound 1 was produced according to the method described in WO97/012869 and dissolved in dimethyl sulfoxide (solvent). As for cells used in the experiment, human aortic endothelial cells (HAEC (Lonza Group Ltd.)) and normal human umbilical vein endothelial cells (HUVEC; American Type Culture Collection) were used.
HUVEC were cultured using an endothelial cell growth medium (Endothelial Cell Growth Medium: Cell Applications) containing 10% FBS. In a 96-well plate coated with Matrigel matrix, HUVEC were seeded at a concentration of 1.5×10^4 cells per well, and incubated in a 200 μL of culture medium containing various concentrations of the […] or solvent alone for 18 hours. After that, total tube length in a field (Total tube length) was calculated by image analysis using a light microscope (E-400; Nikon Corp.).

[4] = tested on: rat femoral artery occlusion model; experiment: Hindlimb muscle blood flow in rat hindlimb ischemia model by ligation of femoral artery (colored microspheres); format: in vivo; conditions: 30 mg/kg oral twice daily for 27 days
Protocol: (§2) The Compound 1 was produced according to the method described in WO97/012869 and was used by dissolving in dimethyl sulfoxide or suspending in 1% (W/W) of hydroxypropyl methyl cellulose aqueous solution. As for animals, 7 to 9 week-old Sprague-Dawley (Slc:SD) male rats were used. As for anesthesia for operation, pentobarbital.sodium was intraperitoneally administered at a dose of 50 mg/kg.
(§3) Bilateral femoral arteries were exposed and the arteries were ligated using a suture under anesthesia. For histological analysis, the Compound 1 or base alone was orally administered twice daily for 27 days starting on the day of operation. On Day 28, the left gastrocnemius muscle was extirpated and frozen in a Tissue-Tek O.C.T. compound (Sakura Finetech Japan Co., Ltd.). Tissue sections at a thickness of 10 μm were prepared by slicing the frozen tissue sample with a freezing microtome, and dried in an air and fixed with acetone. […] The positive staining with α-SMA was identified by an examination using a light microscope, and the luminal area of intramuscular artery was quantified by image analysis (Win ROOF; Mitani Co., Ltd.). The blood flow volume on Day 28 in the hindlimb muscle in this model was determined by measuring at two points, in other words before and after exercise, using Dye-Trak VII+ microspheres (Triton Technology, Inc.).
In particular detail, initially a pentobarbital.sodium solution was intraperitoneally administered to the rat at a dose of 50 mg/kg to anesthetize. […] Wave profile of blood pressure that is characteristic to the left ventricular was detected to confirm whether the catheter has reached to the left ventricular. The temporal pulse pressure and average blood pressure were measured with a sphygmomanometer via the blood pressure transducer. […]

[5] = tested on: human aortic endothelial cells (HAEC); experiment: Proliferative activity of HAEC (WST-8 assay); format: cell-based; conditions: 1 μM and 3 μM, 48 hours incubation, vs solvent control, n=3 (FIG. 1)
Protocol: as §1
HAEC were cultured using an endothelial cell growth medium (EGM-2 bullet kit; Lonza) containing 10% fetal bovine serum (FBS). The proliferative activity of HAEC was assessed by a WST-8 assay using a Cell Counting Kit (Dojindo Laboratories). In a 96-well plate, HAEC were seeded at a concentration of 5000 cells per well, and incubated for 24 hours. Subsequently, the medium in each well was exchanged to 100 μL of fresh culture medium containing various concentrations of the Compound 1 or solvent alone. After the 48 hours of subsequent incubation, 10 μL of WST-8 reagent was added to each well. The plate was incubated another 4 hours, and then the absorbance at 450 nm was measured with an absorbance plate reader.

[6] = tested on: rat femoral artery occlusion model; experiment: Luminal area of intramuscular artery in gastrocnemius muscle, rat femoral artery ligation model (α-SMA staining); format: in vivo; conditions: 30 mg/kg oral twice daily for 27 days, mean±standard error, n=16, ligated control 3315±416, sham 14642±1062, P<0.05
Protocol: as §2, §3

[7] = tested on: human aortic endothelial cells (HAEC); conditions: HAEC in vitro; eNOS phosphorylation via cAMP/PKA and PI3K/Akt, increased NO production (Non-Patent Document 6); cited from earlier work
[8] = tested on: lower-extremity ischemic mouse; conditions: long-term administration (Non-Patent Document 7); cited from earlier work
[9] = Sprague-Dawley (Slc:SD), single oral 3 mg/kg
[10] = Sprague-Dawley (Slc:SD), single oral 10 mg/kg
[11] = Sprague-Dawley (Slc:SD), single oral 100 mg/kg
[12] = Sprague-Dawley, single oral 10 mg/kg
[13] = Sprague-Dawley, single oral 30 mg/kg

O=C(NCCCOc1ccc2[nH]c(=O)ccc2c1)N(C1CC1)[C@@H]1CCCC[C@H]1O [Compound 1, (−)-6-[3-[3-cyclopropyl-3-[(1R,2R)-2-hydroxycyclohexyl]ureido]propoxy]-2(1H)-quinolinone]
vasodilating effect on ring specimen of excised rat femoral artery [1]: dose-dependent vasodilating effect | AUC(0-inf) [2, 9]: 1.33 µM·h | AUC(0-t) [2, 9]: 0.83 µM·h | Cmax [2, 9]: 300 ± 60 nM | Tmax [2, 9]: 1 h | half-life [2, 9]: 2.64 h | AUC(0-t) [2, 10]: 2.38 µM·h | Cmax [2, 10]: 830 ± 140 nM | Cmax ([2]; Sprague-Dawley (Slc:SD), single oral 30 mg/kg): 4730 ± 280 nM | AUC(0-inf) [2, 11]: 48.2 µM·h | AUC(0-t) [2, 11]: 47.1 µM·h | Tmax [2, 11]: 1 h | half-life [2, 11]: 2.19 h | AUC(0-inf) [2, 12]: 2.55 µM·h | Tmax [2, 12]: 1 h | half-life [2, 12]: 2 h | AUC(0-inf) [2, 13]: 14.8 µM·h | AUC(0-t) [2, 13]: 14.1 µM·h | Tmax [2, 13]: 2 h | half-life [2, 13]: 1.61 h | Cmax ([2]; Sprague-Dawley, single oral 100 mg/kg): 9760 ± 1440 nM | angiogenesis in photographs of HUVEC tube formation ([3]; 0.01, 0.1, 1, 10, 100 μM (FIG. 2)): no angiogenesis could be confirmed | HUVEC tube formation, ratio of Total tube length with respect to the control ([3]; 0.01 to 100 μM, 18 hours, n=2 (FIG. 3)): no significant difference with respect to the control | angiogenic activity via direct action to endothelial cells ([3]; conclusion from HAEC proliferation and HUVEC tube formation): does not have an angiogenic activity | blood flow in the gastrocnemius muscle after exercise ([4]; Day 28, after exercise, mean±standard error, n=20, control 0.561±0.034, P<0.001): 0.818 ± 0.058 mL/min/g | blood flow in anterior tibialis muscle after exercise ([4]; Day 28, after exercise, mean±standard error, n=20, control 0.697±0.039, P<0.001): 0.992 ± 0.060 mL/min/g | hindlimb muscle blood flow before exercise ([4]; Day 28, before exercise (at rest), gastrocnemius and anterior tibialis): no change | effect on the proliferative activity of HAEC [5]: no effect | luminal area of the main artery in the gastrocnemius muscle [6]: 7100±824 μm^2

O=C1CCc2cc(OCCCCc3nnnn3C3CCCCC3)ccc2N1 [cilostazol]
tubulogenesis of endothelial cells [7]: promotes tubulogenesis of endothelial cells | vascular density in lower-extremity muscles [8]: elevates
